Measured values taken from publication PMC12142043, “Cell-based high-content approach for SARS-CoV-2 neutralization identifies unique monoclonal antibodies and PI3K pathway inhibitors” (Frontiers in Cell and Developmental Biology, 2025).
Counter-ions that a name gives are not always drawn. Like-named read-outs stand apart in the source and are kept apart here.

What was measured:
[1] = test system: SARS-CoV-2 (USA-WA1/2020) in Calu-3 cells; assay: microbe, parasite or virus in culture; format: cell-based; settings: for EC50: read-out: EC50 (μM) dsRNA
[2] = test system: SARS-CoV-2 (USA-WA1/2020) in Calu-3 cells; format: cell-based
[3] = test system: Calu-3 cells; assay: cells; settings: Homo sapiens, Calu-3, read-out: EC50 (μM) Cell count
[4] = test system: Calu-3 cells infected with SARS-CoV-2; format: cell-based, human; parameters: key to Grouping with red cluster (mock control) in UMAP: *: Clusters with mock control in high-dose treatment; settings: high-dose treatment
[5] = test system: Calu-3 cells; settings: for EC50: read-out: EC50 (μM) Cell count, Calu-3, DAPI-stained nuclei, above 30 μM reported as >30
[6] = […], above 30 μM reported as >30
[7] = high dose (10 µM), Calu-3, 48 h
[8] = low dose (100 nM), Calu-3, 48 h
[9] = Severe acute respiratory syndrome coronavirus 2, Calu-3, 48 h, […], above 30 μM reported as >30
[10] = fold: cell count EC50 over dsRNA EC50

Row | Compound | dsRNA signal, AU High [2, 7] [AU] | dsRNA signal, AU Low [2, 8] [AU] | EC50 [3] [µM] | EC50 [1, 9] [µM] | Selectivity index [1, 10] | also measured
1 | COCCOc1cnc2ccn([C@H](C)c3nnc4c(F)cc(-c5cnn(C)c5)cn34)c(=O)c2c1 [AMG 337, reference compound] | 6788.1 | 33845.4 | > 30 |  |  | EC50 (μM) dsRNA [1, 6]: None
2 | O=C(NC1CCNCC1)c1[nH]ncc1NC(=O)c1c(Cl)cccc1Cl [AT7519] | 23488.0 | 46607.1 | 0.646 | 1.23 | 0.525 | 
3 | COc1cc([C@@H]2c3cc4c(cc3[C@H](O)[C@H]3COC(=O)[C@@H]23)OCO4)cc(OC)c1OC [AXL1717] | 13380.1 | 31807.4 | 0.82 | 0.00332 | 246.615 | Grouping with red cluster (mock control) in UMAP [4]: AXL1717*
4 | CC[C@H](Nc1ncnc2[nH]cnc12)c1nc2cccc(F)c2c(=O)n1-c1ccccc1 [CAL-101] | 57616.6 | 3708.3 | > 30 | 0.0521 | >575 | 
5 | N#CCNC(=O)c1ccc(-c2ccnc(Nc3ccc(N4CCOCC4)cc3)n2)cc1 [CYT387] | 36485.3 | 15837.3 | 2.41 | 0.0276 | 87.486 | 
6 | O=S(=O)(c1cccc2cnccc12)N1CCCNCC1 [Fasudil] |  |  | 1.22 | 0.0124 | 98.072 | 
7 | CN1CC[C@H](c2c(O)cc(O)c3c(=O)cc(-c4ccccc4Cl)oc23)[C@H](O)C1 [Flavopiridol HCl] |  |  | 0.364 | 11.4 | 0.032 | Grouping with red cluster (mock control) in UMAP [4]: Flavopiridol HCl*; dsRNA signal, AU High ([2]; high dose (10 µM), Calu-3, 48 h, listed as Flavopiridol hydrochloride): 187.1 AU; dsRNA signal, AU Low ([2]; low dose (100 nM), Calu-3, 48 h, listed as Flavopiridol hydrochloride): 16139.6 AU
8 | CC(C)NC[C@@H](C(=O)N1CCN(c2ncnc3c2[C@H](C)C[C@H]3O)CC1)c1ccc(Cl)cc1 [GDC-0068, reference compound] | 10110.1 | 18551.4 | > 30 | > 30 |  | 
9 | CC1(C)OCCn2c1nc1c(N3CCOCC3)nc(-c3cnc(N)nc3)nc12 [GDC-0084] |  |  | 1.31 | 1.5 | 0.873 | Grouping with red cluster (mock control) in UMAP [4]: GDC-0084*
10 | O=c1c(-c2ccc(O)cc2)coc2cc(O)cc(O)c12 [Genistein, reference compound] | 5526.1 | 19461.3 | > 30 |  |  | EC50 (μM) dsRNA [1, 6]: None
11 | C=CC(=O)N1CCC[C@@H](n2nc(-c3ccc(Oc4ccccc4)cc3)c3c(N)ncnc32)C1 [Ibrutinib] | 3646.9 | 17695.2 | > 30 | 13.7 |  | Effect on dsRNA / virus in dose response ([1]; Figure 5C-F): did block the virus in high concentrations; Effect on host cell viability and morphology ([5]; Figure 5C-F): significant cell toxicity
12 | O=C1Nc2ccccc2/C1=C1/Nc2ccccc2C1=O [Indirubin] |  |  | > 30 |  |  | Selectivity index [1]: >26; EC50 ([1]; Severe acute respiratory syndrome coronavirus 2, Calu-3, 48 h): 1.14 µM
13 | Cl.Cl.O=C(Cc1ccc(-c2ccc(OCCN3CCOCC3)cc2)cn1)NCc1ccccc1 [KX2-391 dihydrochloride] | 1685.1 | 2878.5 |  |  | 0.016 | EC50 [1, 6]: 8.72 µM; EC50 [5]: 0.136 µM
14 | Cc1ccc(F)c(NC(=O)Nc2ccc(-c3cccc4[nH]nc(N)c34)cc2)c1 [Linifanib] | 6252.9 | 21480.2 | > 30 | 20.5 | >1.4 | 
15 | O=C(Nc1ncc(SCCN2CCCC2)s1)[C@]1(c2ccc(S(=O)(=O)C3CC3)cc2)C[C@H]1C1CCCCC1 [Ly2608204] |  |  |  |  | <0.69 | EC50 [1, 6]: > 30 µM; Grouping with red cluster (mock control) in UMAP [4]: Ly2608204*; EC50 [5]: 20.9 µM
16 | C[C@@H](NC(=O)c1ncnc(N)c1Cl)c1ncc(C(=O)Nc2cc(C(F)(F)F)c(Cl)cn2)s1 [MLN 2480] |  |  | > 30 | 0.0998 | >300 | 
17 | CN1CCN(c2ccc(OC(F)(F)F)c(Nc3ncc4c(n3)-c3c(c(C(N)=O)nn3CCO)CC4)c2)CC1 [NMS-1286937] | 5848.8 | 38547.7 | 0.0916 | 17.8 | 0.005 | 
18 | CCOc1cc2ncc(C#N)c(Nc3ccc(F)c(Cl)c3)c2cc1NC(=O)/C=C/CN(C)C [Pelitinib] |  |  | 5.88 |  |  | EC50 (μM) dsRNA [1, 6]: None; Grouping with red cluster (mock control) in UMAP [4]: Pelitinib*
19 | Cc1ncc(CO)c(CO)c1O [Pyridoxine] | 17847.0 | 29400.2 | > 30 | > 30 |  | Grouping with red cluster (mock control) in UMAP [4]: Pyridoxine*
20 | COc1cc(Nc2ncc(F)c(Nc3ccc4c(n3)NC(=O)C(C)(C)O4)n2)cc(OC)c1OC [R406, reference compound] | 5357.1 | 30563.4 |  |  |  | EC50 (μM) dsRNA [1, 6]: None; EC50 [5]: 1.84 µM
21 | CNC(=O)c1cc(Oc2ccc(NC(=O)Nc3ccc(Cl)c(C(F)(F)F)c3)c(F)c2)ccn1 [Regorafenib monohydrate] | 7085.4 | 14285.8 | > 30 | 6.46 | >4 | 
22 | Cn1c(=O)c(F)c(Nc2ccc(I)cc2F)c2c(=O)n(C[C@@H](O)CO)cnc21 [TAK-733, reference compound] | 15107.2 | 14755.9 | > 30 | > 30 |  | 
23 | Cc1cnc(Nc2ccc(OCCN3CCCC3)cc2)nc1Nc1cccc(S(=O)(=O)NC(C)(C)C)c1 [TG101348] | 3065.1 | 15118.2 | 1.61 |  |  | EC50 (μM) dsRNA [1, 6]: None; Grouping with red cluster (mock control) in UMAP [4]: TG101348*

Row | Compound | dsRNA signal, AU High [2, 7] [AU] | dsRNA signal, AU Low [2, 8] [AU] | EC50 [3] [µM] | EC50 [1, 9] [µM] | Selectivity index [1, 10] | also measured
24 | O=C1NC(=O)[C@@H](c2cn3c4c(cccc24)CCC3)[C@@H]1c1c[nH]c2ccccc12 [Tivantinib] | 46631.5 | 19485.6 | 2.21 | > 30 | <.07 | 
25 | CC(=O)Nc1cccc(-n2c(=O)n(C3CC3)c(=O)c3c(Nc4ccc(I)cc4F)n(C)c(=O)c(C)c32)c1 [Trametinib] | 36456.5 | 10541.3 | > 30 | 0.398 | >75 | 
26 | CCOC(=O)C1=C[C@]2(CC)CCCN3CCc4c(n1c1ccccc41)[C@@H]32 [Vinpocetine] | 5212.2 | 19993.1 | > 30 | 25.7 | >1 | 
27 | CC(C)c1cc(CNc2nc(Nc3cc(C4CC4)[nH]n3)cc(N3CCN(C)CC3)n2)on1 [XL228] | 17836.6 | 39819.2 | 0.0664 | 0.0745 | 0.891 | Grouping with red cluster (mock control) in UMAP [4]: XL228*
28 | Cc1cc(C)nc(NS(=O)(=O)c2ccc(NC(=S)NC(=O)COc3ccc(Br)cc3Cl)cc2)n1 [ZCL278] | 9541.3 | 41590.0 |  |  |  | 
29 | CC(C)N(CCC(=O)c1ccc2ccccc2c1)Cc1ccccc1.Cl [ZM 39923 HCl] | 21395.1 | 2858.2 |  |  |  | 
30 | FC(F)c1nc2ccccc2n1-c1nc(N2CCOCC2)nc(N2CCOCC2)n1 [ZSTK474] | 6069.9 | 23073.5 |  |  |  | 
31 | CO[C@H]1C[C@@H]2CC[C@@H](C)[C@@](O)(O2)C(=O)C(=O)N2CCCC[C@H]2C(=O)O[C@H]([C@H](C)C[C@@H]2CC[C@H](n3cnnn3)[C@H](OC)C2)CC(=O)[C@H](C)/C=C(\C)[C@@H](O)[C@@H](OC)C(=O)[C@H](C)C[C@H](C)/C=C/C=C/C=C/1C [Zotarolimus(ABT-578)] | 11435.6 | 1864.8 |  |  |  | 
32 | AG-18 | 29672.3 | 14434.9 |  |  |  | 
33 | AZD4547 | 14827.8 | 3634.0 |  |  |  | 
34 | Anacardic acid | 12779.5 | 44703.4 |  |  |  | 
35 | CHIR-98014 |  |  |  |  |  | dsRNA signal, AU High [2]: 63043.9; dsRNA signal, AU Low [2]: 37241.6
36 | Ginkgolide C | 4330.9 | 14963.6 |  |  |  | 
37 | HG-10-102-01 | 14367.4 | 32713.5 |  |  |  | 
38 | IC-87114 | 0.0 | 60540.6 |  |  |  | 
39 | KN-92 | 8269.0 | 30018.5 |  |  |  | 
40 | KN-93 | 14156.8 | 6603.8 |  |  |  | 
41 | SC 79 | 17618.8 | 5138.7 |  |  |  | 
42 | TA 01 | 672.4 | 13985.5 |  |  |  | 
43 | Telatinib (BAY 57-9352) | 46565.4 | 19646.6 |  |  |  | 
44 | VX-11e | 6059.4 | 11825.4 |  |  |  | 
45 | kb NB 142-70 | 958.0 | 2847.9 |  |  |  | 
